For one assay, the target named is T1, recombinant PRL-2 (Homo sapiens, UniProt Q12974).
T1 construct: 6xHis (N, cleaved yes); made in house; host or cells: E. coli One Shot BL21 Star
T1 sequence (Q12974 1-167): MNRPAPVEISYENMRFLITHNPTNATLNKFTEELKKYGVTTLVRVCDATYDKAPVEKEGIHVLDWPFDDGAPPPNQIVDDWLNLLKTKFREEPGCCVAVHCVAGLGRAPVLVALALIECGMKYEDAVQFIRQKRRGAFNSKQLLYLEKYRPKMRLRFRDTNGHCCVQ
Description: In vitro phosphatase assay (DiFMUP hydrolysis), PRL-2.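 Further: PRL-2 activity read as DiFMUP hydrolysis after 20 min at room temperature with drug, enzyme first pre-reduced at 4 °C for 20 min.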 It counts as biochemical.

The next assay concerns the target T2, recombinant PRL-3 (Homo sapiens, UniProt O75365).
T2 construct: 6xHis (N, cleaved yes); made in house; host or cells: E. coli One Shot BL21 Star
As to the kind of experiment: In vitro phosphatase assay (DiFMUP hydrolysis), PRL-3. Further: test concentration or dose not given here. It counts as biochemical.

The mark [1] stands for this setting: FDA-approved drug screen, compared to DMSO.
[2] abbreviates: FDA-approved drug screen, activity compared to DMSO.

Structures are written as SMILES. Where a name gives a salt, the structure may show the parent alone. Read-outs that look alike come from different tables or passages of the source.

T2 sequence (O75365 whole entry): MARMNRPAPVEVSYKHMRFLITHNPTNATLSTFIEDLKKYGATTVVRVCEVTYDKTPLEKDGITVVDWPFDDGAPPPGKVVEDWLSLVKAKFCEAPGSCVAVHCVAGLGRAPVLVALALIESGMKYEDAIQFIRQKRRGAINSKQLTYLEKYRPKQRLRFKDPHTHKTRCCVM

With `Cl.N=C(N=C(N)N)N1CCOCC1` [Moroxydine HCl], the “% Phosphatase Activity (compared to DMSO) PRL-2” value at recombinant PRL-2 (setting [1]) was found to be 102%. In addition, the “% Phosphatase Activity (compared to DMSO) PRL-3” value on recombinant PRL-3 (setting [1]) was 79%.
Regarding `FC(F)(F)c1ccc(/C=C/c2nc(COc3ccc(CCCCn4ccnn4)cc3)co2)cc1` [Mubritinib (TAK 165)], the “% Phosphatase Activity (compared to DMSO) PRL-2” value at recombinant PRL-2 is reported as 114%. For the same compound, the “% Phosphatase Activity (compared to DMSO) PRL-3” value on recombinant PRL-3 is reported as 101%.
In the case of `C=C1CC[C@@]2(O)[C@H]3Cc4ccc(O)c5c4[C@@]2(CCN3CC2CC2)[C@H]1O5` [Nalmefene HCl], the “% Phosphatase Activity (compared to DMSO) PRL-2” value at recombinant PRL-2 (setting [1]) is reported as 102%. For the same compound, at recombinant PRL-3 (setting [1]), the “% Phosphatase Activity (compared to DMSO) PRL-3” value was determined as 95%.
Taken in the same sequence, the figures for `Cl.O=C(O)/C=C/c1ccc(Cn2ccnc2)cc1` [Ozagrel HCl] were 120% and 81%.
Taken in the same sequence, the figures for `CC(=O)O[C@H]1C[C@@H]2CC[C@@H]3[C@H](CC[C@@]4(C)[C@H]3C[C@H]([N+]3(C)CCCCC3)[C@@H]4OC(C)=O)[C@@]2(C)C[C@@H]1[N+]1(C)CCCCC1.[Br-].[Br-]` [Pancuronium dibromide] were 109% and 85%.
As to `Nc1nc2[nH]cc(CCc3ccc(C(=O)N[C@@H](CCC(=O)[O-])C(=O)[O-])cc3)c2c(=O)[nH]1.Nc1nc2[nH]cc(CCc3ccc(C(=O)N[C@@H](CCC(=O)[O-])C(=O)[O-])cc3)c2c(=O)[nH]1.O.O.O.O.O.[Na+].[Na+].[Na+].[Na+]` [Pemetrexed Disodium Hydrate], the “% Phosphatase Activity (compared to DMSO) PRL-2” value at recombinant PRL-2 (setting [1]) is on record as 101%. On recombinant PRL-3 (setting [1]), the “% Phosphatase Activity (compared to DMSO) PRL-3” value came to 108%.
Take `CC1(C)S[C@@H]2[C@H](NC(=O)Cc3ccccc3)C(=O)N2[C@H]1C(=O)O` [Penicillin G Sodium]: on recombinant PRL-2 (setting [1]), the “% Phosphatase Activity (compared to DMSO) PRL-2” value was 105%. Besides, at recombinant PRL-3 (setting [1]), the “% Phosphatase Activity (compared to DMSO) PRL-3” value is reported as 75%.
Taken in the same sequence, the figures for `CCOc1ccc(NC(C)=O)cc1` [Phenacetin] were 114% and 81%.
As to `CC(C)N(CCNC(=O)CN1CCCC1=O)C(C)C` [Pramiracetam], the “% Phosphatase Activity (compared to DMSO) PRL-2” value at recombinant PRL-2 (setting [1]) was 88%. Further, on recombinant PRL-3 (setting [1]), the “% Phosphatase Activity (compared to DMSO) PRL-3” value was 88%.
Take `CCc1nc(N)nc(N)c1-c1ccc(Cl)cc1` [Pyrimethamine]: on recombinant PRL-2 (setting [1]), the “% Phosphatase Activity (compared to DMSO) PRL-2” value stood at 109%. The “% Phosphatase Activity (compared to DMSO) PRL-3” value on recombinant PRL-3 (setting [1]) is on record as 89%.
As to `Cc1ccnc(NS(=O)(=O)c2ccc(N)cc2)n1` [Sulfamerazine], the “% Phosphatase Activity (compared to DMSO) PRL-2” value at recombinant PRL-2 (setting [2]) was found to be 108%. For the same compound, the “% Phosphatase Activity (compared to DMSO) PRL-3” value at recombinant PRL-3 (setting [2]) is reported as 83%.
Consider `Nc1ccc(S(N)(=O)=O)cc1` [Sulfanilamide], for which the “% Phosphatase Activity (compared to DMSO) PRL-2” value on recombinant PRL-2 (setting [2]) is listed as 92%. The “% Phosphatase Activity (compared to DMSO) PRL-3” value at recombinant PRL-3 (setting [2]) is reported as 77%.
As to `Nc1c2c(nc3ccccc13)CCCC2` [Tacrine HCl], the “% Phosphatase Activity (compared to DMSO) PRL-2” value at recombinant PRL-2 worked out at 89%. In addition, the “% Phosphatase Activity (compared to DMSO) PRL-3” value on recombinant PRL-3 was determined as 89%.
Turning to `CC/C(=C(\c1ccccc1)c1ccc(OCCN(C)C)cc1)c1ccccc1` [Tamoxifen], the “% Phosphatase Activity (compared to DMSO) PRL-2” value on recombinant PRL-2 (setting [2]) is reported as 110%. The “% Phosphatase Activity (compared to DMSO) PRL-3” value on recombinant PRL-3 (setting [2]) was 81%.
Taken in the same sequence, the figures for `CN1CCC(COc2cnc(-c3cccc(Cn4nc(-c5cccc(C#N)c5)ccc4=O)c3)nc2)CC1` [Tepotinib (EMD 1214063)] were 110% and 113%.
Consider `CN(C/C=C/C#CC(C)(C)C)Cc1cccc2ccccc12` [Terbinafine], for which the “% Phosphatase Activity (compared to DMSO) PRL-2” value at recombinant PRL-2 (setting [2]) turned out to be 122%. Also, the “% Phosphatase Activity (compared to DMSO) PRL-3” value at recombinant PRL-3 (setting [2]) is on record as 84%.
With `COc1cc(Cc2cnc(N)nc2N)cc(OC)c1OC` [Trimethoprim], the “% Phosphatase Activity (compared to DMSO) PRL-2” value at recombinant PRL-2 turned out to be 107%. At recombinant PRL-3, the “% Phosphatase Activity (compared to DMSO) PRL-3” value is 79%.
`CN1[C@@H]2CC[C@H]1C[C@@H](OC(=O)c1c[nH]c3ccccc13)C2` [Tropisetron]: at recombinant PRL-2 (setting [2]), the “% Phosphatase Activity (compared to DMSO) PRL-2” value came out at 100%. Further, the “% Phosphatase Activity (compared to DMSO) PRL-3” value at recombinant PRL-3 (setting [2]) came to 93%.

For the origin of these results see paper PMC8119466, “A screen of FDA-approved drugs identifies inhibitors of protein tyrosine phosphatase 4A3 (PTP4A3 or PRL-3)” (Scientific Reports, 2021).
